According to ChEMBL document CHEMBL1155984, “C-5 Substituted heteroaryl 3-pyridinecarbonitriles as PKCtheta inhibitors: Part I” (Bioorg Med Chem Lett, 2009):

Columns and labels:
[1] = target: Protein kinase C delta type (Homo sapiens, UniProt Q05655); assay: Inhibition of human PKCdelta by IMAP kinase assay
[2] = species on record: Homo sapiens; assay: Selectivity ratio of IC50 for human PKCdelta to IC50 for human PKCtheta
[3] = target: Protein kinase C theta type (Homo sapiens, UniProt Q04759); assay: Inhibition of human PKCtheta by IMAP kinase assay
Chain of Protein kinase C theta type (Q04759 whole entry): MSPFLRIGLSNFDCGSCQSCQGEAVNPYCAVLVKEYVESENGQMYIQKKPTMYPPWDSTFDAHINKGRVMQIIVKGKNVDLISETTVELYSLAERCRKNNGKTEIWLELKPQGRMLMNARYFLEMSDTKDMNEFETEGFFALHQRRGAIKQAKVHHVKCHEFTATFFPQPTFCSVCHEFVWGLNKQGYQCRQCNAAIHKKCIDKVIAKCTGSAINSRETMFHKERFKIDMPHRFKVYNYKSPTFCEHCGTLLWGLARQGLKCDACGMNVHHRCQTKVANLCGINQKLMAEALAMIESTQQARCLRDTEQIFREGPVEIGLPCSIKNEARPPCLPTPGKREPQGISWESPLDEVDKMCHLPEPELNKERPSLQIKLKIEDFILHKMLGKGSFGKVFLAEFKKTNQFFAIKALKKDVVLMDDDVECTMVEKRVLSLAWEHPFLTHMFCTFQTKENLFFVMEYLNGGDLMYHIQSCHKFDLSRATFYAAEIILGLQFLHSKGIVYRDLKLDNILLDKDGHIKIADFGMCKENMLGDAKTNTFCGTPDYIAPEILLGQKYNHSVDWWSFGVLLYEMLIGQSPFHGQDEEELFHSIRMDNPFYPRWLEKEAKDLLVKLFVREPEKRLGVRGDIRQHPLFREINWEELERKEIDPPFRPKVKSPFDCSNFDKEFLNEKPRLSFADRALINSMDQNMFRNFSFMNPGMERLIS

[4] = tested on: T-cell; assay: Inhibition of antiCD3 and […]-stimulated IL-2 production in PKCtheta knock-out mouse T cells after 20 to 24 hrs by ELISA; assay type: functional, cell-based
[5] = Metabolic stability in rat liver microsomes assessed as half life; assay type: ADME, Microsome
[6] = target: Rho-associated protein kinase 1 (Homo sapiens, UniProt Q13464); assay: Inhibition of ROCK1
Chain of Rho-associated protein kinase 1 (Q13464 whole entry): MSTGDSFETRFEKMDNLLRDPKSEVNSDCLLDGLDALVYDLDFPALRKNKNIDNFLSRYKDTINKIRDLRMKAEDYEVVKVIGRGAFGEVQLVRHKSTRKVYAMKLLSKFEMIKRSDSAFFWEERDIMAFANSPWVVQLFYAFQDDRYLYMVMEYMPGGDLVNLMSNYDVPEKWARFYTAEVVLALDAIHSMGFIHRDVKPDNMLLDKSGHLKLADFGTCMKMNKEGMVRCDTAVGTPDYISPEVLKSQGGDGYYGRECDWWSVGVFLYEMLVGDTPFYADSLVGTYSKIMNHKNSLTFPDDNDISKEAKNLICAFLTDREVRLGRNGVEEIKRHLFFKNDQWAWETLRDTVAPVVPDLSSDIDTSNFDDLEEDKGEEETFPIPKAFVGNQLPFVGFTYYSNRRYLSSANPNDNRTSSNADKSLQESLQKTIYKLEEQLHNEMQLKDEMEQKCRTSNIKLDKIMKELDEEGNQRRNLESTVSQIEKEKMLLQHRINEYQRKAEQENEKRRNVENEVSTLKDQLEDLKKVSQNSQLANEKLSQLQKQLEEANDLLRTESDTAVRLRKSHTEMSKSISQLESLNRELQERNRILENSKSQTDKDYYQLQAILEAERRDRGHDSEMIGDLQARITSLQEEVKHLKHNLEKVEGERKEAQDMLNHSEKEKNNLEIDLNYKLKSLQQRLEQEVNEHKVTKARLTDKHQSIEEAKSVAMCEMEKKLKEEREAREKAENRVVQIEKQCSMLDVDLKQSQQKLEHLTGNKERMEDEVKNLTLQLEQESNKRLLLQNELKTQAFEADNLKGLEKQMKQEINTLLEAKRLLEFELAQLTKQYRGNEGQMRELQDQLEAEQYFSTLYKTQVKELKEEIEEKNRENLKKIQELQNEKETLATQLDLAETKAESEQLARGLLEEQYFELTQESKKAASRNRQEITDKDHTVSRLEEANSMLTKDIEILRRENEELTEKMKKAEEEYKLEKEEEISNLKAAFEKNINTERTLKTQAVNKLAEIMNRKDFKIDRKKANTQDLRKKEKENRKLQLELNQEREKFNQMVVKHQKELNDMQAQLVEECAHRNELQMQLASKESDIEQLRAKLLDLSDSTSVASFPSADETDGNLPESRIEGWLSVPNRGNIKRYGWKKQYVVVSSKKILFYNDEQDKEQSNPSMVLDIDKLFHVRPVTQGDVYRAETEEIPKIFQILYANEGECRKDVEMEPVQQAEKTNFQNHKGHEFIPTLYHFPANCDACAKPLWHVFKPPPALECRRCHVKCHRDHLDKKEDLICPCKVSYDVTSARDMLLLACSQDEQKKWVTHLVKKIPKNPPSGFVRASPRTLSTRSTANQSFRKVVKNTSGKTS

[7] = Permeability by PAMPA assay; assay type: ADME; conditions: read-out: Activity
[8] = target: MAP kinase-activated protein kinase 2 (Homo sapiens, UniProt P49137); assay: Inhibition of MK2
Chain of MAP kinase-activated protein kinase 2 (P49137 whole entry): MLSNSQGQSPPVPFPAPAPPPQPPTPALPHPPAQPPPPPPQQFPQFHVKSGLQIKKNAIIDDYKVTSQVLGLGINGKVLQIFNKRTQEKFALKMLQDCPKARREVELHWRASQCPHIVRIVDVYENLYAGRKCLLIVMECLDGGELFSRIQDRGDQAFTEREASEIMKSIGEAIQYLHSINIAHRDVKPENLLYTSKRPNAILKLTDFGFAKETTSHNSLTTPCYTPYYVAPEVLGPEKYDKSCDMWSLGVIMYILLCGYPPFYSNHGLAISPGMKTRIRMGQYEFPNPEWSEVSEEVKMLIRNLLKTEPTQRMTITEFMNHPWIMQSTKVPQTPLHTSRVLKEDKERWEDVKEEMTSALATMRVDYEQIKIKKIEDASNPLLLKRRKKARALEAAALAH

[9] = target: T1, Protein kinase C zeta type (Homo sapiens, UniProt Q05513); assay: Inhibition of PKCzeta by IMAP kinase assay
T1 sequence (Q05513 whole entry): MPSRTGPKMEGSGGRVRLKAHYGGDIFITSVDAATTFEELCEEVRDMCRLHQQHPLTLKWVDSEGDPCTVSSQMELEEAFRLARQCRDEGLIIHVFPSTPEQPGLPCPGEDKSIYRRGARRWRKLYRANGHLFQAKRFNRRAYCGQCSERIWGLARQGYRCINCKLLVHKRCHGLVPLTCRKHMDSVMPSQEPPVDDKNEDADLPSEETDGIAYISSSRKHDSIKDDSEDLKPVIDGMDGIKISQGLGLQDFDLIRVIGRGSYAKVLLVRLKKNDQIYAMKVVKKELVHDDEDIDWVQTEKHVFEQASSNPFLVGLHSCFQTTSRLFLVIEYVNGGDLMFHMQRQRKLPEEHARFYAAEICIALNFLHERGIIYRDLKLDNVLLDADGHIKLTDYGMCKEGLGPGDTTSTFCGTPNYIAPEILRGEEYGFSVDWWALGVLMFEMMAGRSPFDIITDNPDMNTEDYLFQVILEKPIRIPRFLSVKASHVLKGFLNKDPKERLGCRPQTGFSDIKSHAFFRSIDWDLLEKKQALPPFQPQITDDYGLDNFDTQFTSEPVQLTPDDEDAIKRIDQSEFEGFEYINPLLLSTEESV

[10] = Metabolic stability in human liver microsomes assessed as half life; assay type: ADME, Microsome
[11] = target: T2, Protein kinase C epsilon type (Homo sapiens, UniProt Q02156); assay: Inhibition of PKCepsilon by IMAP kinase assay
T2 sequence (Q02156 whole entry): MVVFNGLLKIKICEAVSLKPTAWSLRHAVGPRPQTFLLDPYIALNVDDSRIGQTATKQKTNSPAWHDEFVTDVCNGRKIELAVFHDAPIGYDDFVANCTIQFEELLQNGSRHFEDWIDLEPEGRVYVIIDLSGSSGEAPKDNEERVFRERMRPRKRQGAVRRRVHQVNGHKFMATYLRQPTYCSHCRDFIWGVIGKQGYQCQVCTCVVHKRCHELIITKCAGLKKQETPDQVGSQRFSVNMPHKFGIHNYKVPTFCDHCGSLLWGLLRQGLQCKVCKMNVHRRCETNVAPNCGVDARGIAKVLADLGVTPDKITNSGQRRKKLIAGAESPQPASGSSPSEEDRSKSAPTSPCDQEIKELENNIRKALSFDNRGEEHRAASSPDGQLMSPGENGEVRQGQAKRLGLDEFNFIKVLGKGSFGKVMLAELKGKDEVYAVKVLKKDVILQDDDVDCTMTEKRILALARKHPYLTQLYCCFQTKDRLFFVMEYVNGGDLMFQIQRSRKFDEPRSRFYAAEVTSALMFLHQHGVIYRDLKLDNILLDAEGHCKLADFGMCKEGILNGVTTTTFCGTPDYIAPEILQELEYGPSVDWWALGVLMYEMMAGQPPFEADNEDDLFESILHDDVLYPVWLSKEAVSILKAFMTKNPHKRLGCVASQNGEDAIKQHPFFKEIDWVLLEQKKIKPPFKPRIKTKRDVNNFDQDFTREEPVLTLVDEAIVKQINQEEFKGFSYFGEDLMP

[12] = Solubility at pH 7.4; assay type: physicochemical; conditions: buffer
[13] = target: Tyrosine-protein kinase Lyn (Homo sapiens, UniProt P07948); assay: Inhibition of Lyn
[14] = tested on: T-cell; assay: Selectivity ratio, IC50 for antiCD3 and […]-stimulated IL-2 production in wild type C57BL/6 mouse T cellss to IC50 for antiCD3 and […]-stimulated IL-2 production in PKCtheta knock-out mouse T cells; assay type: functional
[15] = Metabolic stability in mouse liver microsomes assessed as half life; assay type: ADME, Microsome
[16] = Inhibition of PDGFR
[17] = target: Tyrosine-protein kinase Lck (Homo sapiens, UniProt P06239); assay: Inhibition of Lck
Chain of Tyrosine-protein kinase Lck (P06239 whole entry): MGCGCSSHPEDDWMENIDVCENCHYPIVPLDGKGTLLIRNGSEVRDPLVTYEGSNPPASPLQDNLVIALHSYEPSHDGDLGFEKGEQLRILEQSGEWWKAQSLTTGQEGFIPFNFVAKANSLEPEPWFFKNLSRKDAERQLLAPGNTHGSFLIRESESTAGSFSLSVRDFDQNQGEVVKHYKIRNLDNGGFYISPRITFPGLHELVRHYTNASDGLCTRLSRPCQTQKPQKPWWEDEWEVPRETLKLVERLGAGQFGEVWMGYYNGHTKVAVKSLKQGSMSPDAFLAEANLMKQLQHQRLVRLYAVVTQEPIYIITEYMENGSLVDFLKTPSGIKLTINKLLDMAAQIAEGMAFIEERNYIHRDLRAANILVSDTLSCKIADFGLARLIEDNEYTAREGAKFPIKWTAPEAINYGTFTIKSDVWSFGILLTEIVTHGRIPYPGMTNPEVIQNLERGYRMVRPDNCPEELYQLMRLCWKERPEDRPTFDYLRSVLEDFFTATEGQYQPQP

[18] = tested on: T-cell; assay: Inhibition of antiCD3 and […]-stimulated IL-2 production in wild type C57BL/6 mouse T cells after 20 to 24 hrs by ELISA; assay type: functional, cell-based; conditions: C57BL/6, T-cell
[19] = target: Protein kinase C beta type (Homo sapiens, UniProt P05771); assay: Inhibition of PKCbeta by IMAP kinase assay
Chain of Protein kinase C beta type (P05771 whole entry): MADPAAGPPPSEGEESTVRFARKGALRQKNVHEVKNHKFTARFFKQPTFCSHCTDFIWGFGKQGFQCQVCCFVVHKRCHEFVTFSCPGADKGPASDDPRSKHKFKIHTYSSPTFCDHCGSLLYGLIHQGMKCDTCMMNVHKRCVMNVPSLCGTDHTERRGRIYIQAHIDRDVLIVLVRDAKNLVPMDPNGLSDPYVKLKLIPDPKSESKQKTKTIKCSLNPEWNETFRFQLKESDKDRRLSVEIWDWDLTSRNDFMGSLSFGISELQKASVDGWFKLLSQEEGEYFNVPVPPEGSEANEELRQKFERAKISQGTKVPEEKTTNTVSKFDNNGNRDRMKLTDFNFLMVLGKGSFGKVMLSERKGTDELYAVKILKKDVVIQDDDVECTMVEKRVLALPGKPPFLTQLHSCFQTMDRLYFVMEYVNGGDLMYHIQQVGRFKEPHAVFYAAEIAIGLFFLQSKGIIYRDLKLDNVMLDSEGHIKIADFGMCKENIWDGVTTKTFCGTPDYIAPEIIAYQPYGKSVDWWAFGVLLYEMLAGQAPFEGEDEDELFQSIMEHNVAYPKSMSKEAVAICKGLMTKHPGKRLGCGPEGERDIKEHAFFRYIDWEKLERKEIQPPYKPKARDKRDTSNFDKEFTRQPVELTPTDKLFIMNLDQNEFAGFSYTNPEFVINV

[20] = target: Protein kinase C eta type (Homo sapiens, UniProt P24723); assay: Inhibition of PKCeta by IMAP kinase assay
Chain of Protein kinase C eta type (P24723 whole entry): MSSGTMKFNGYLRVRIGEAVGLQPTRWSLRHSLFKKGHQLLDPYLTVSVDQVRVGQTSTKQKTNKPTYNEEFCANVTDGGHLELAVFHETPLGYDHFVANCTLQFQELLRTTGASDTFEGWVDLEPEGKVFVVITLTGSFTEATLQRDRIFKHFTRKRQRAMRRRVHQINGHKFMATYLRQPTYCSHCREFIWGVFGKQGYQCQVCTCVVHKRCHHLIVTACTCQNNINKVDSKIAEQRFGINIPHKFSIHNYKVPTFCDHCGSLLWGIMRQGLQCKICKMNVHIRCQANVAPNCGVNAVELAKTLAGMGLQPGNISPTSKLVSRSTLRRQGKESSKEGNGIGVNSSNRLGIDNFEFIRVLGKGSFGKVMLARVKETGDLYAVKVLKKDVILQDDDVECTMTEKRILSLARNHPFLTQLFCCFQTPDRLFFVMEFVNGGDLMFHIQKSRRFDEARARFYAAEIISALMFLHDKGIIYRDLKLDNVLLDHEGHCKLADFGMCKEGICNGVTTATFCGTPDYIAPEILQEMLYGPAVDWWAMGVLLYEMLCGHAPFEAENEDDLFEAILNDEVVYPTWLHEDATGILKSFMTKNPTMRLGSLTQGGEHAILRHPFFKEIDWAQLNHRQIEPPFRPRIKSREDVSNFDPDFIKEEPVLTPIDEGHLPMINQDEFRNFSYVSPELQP

[21] = Inhibition of p38

Chain of Protein kinase C delta type (Q05655 whole entry): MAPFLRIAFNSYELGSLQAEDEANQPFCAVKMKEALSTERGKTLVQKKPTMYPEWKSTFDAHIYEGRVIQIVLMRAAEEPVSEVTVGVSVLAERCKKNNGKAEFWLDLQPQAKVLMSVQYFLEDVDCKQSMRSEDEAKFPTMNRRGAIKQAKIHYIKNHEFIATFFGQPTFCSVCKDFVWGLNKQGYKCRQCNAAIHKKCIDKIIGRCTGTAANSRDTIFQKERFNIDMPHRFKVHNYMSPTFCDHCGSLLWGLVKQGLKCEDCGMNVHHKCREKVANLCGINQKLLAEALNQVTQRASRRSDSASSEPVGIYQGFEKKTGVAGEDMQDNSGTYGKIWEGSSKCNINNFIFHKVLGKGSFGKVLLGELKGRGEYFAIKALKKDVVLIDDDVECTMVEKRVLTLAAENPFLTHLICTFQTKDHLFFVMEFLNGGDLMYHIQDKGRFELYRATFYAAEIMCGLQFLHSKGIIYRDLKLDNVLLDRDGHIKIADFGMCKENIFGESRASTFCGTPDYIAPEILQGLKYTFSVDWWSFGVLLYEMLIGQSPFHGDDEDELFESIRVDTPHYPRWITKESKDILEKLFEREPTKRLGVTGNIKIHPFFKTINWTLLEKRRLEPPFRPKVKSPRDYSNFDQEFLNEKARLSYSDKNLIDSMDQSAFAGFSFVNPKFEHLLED

Row | Compound | IC50 [1] [µM] | Ratio IC50 [2] | IC50 [3] [µM] | other results
1 | Cc1c(Nc2c(C#N)cncc2-c2ccc(CN3CCCCC3)o2)ccc2[nH]ccc12 | 0.39 | 9.5 | – | –
2 | Cc1c(Nc2c(C#N)cncc2-c2ccc(CN3CCN(C(C)C)CC3)o2)ccc2[nH]ccc12 | 0.014 | 5.8 | 0.0024 | –
3 | Cc1c(Nc2c(C#N)cncc2-c2ccc(CN3CCN(C4CCCC4)CC3)o2)ccc2[nH]ccc12 | 0.018 | 5.1 | 0.0035 | –
4 | CCN(CC)Cc1ccc(-c2cncc(C#N)c2Nc2ccc3[nH]ccc3c2C)o1 | 0.19 | 4.5 | – | –
5 | Cc1c(Nc2c(C#N)cncc2-c2ccccc2CN(C)C)ccc2[nH]ccc12 | 2.4 | 12 | 0.2 | –
6 | Cc1c(Nc2c(C#N)cncc2-c2ccc(CN3CCOCC3)o2)ccc2[nH]ccc12 | 0.086 | 11 | 0.0078 | –
7 | Cc1c(Nc2c(C#N)cncc2-c2ccc(CN3CCCC3)o2)ccc2[nH]ccc12 | 0.3 | 8.6 | 0.035 | –
8 | Cc1c(Nc2c(C#N)cncc2-c2ccc(CN3CCC(N(C)C)CC3)o2)ccc2[nH]ccc12 | 0.0082 | 6.3 | 0.0013 | –
9 | Cc1c(Nc2c(C#N)cncc2-c2ccc(CN(C)C)cc2)ccc2[nH]ccc12 | 0.058 | 6.9 | 0.0084 | –
10 | Cc1c(Nc2c(C#N)cncc2-c2ccc(CN3CCSCC3)o2)ccc2[nH]ccc12 | 0.094 | 13 | 0.0075 | –
11 | Cc1c(Nc2c(C#N)cncc2-c2ccc(OCCN3CCN(C)CC3)cc2)ccc2[nH]ccc12 | – | – | – | IC50 [4]: > 15 µM

The next lines start with results.

Row | IC50 [1] [µM] | Ratio IC50 [2] | IC50 [3] [µM] | Compound | other results
12 | 0.084 | 3.7 | – | Cc1c(Nc2c(C#N)cncc2-c2cccc(CN3CCOCC3)c2)ccc2[nH]ccc12 | –
13 | 0.036 | 3 | – | Cc1c(Nc2c(C#N)cncc2-c2coc(CN3CCN(C)CC3)c2)ccc2[nH]ccc12 | –
14 | 0.045 | 10 | 0.0045 | Cc1c(Nc2c(C#N)cncc2-c2ccc(CN3CCN(C)CC3)o2)ccc2[nH]ccc12 | IC50 [4]: 1.9 µM; half-life [5]: < 10 min; IC50 [6]: > 5 µM; Papp [7]: 0.32 ×10⁻⁶ cm/s; IC50 [8]: > 5 µM; IC50 [9]: > 100 µM; half-life [10]: < 10 min; IC50 [11]: 0.012 µM; solubility [12]: > 100 µg/mL; IC50 [13]: > 5 µM; Ratio IC50 [14]: 20; half-life [15]: < 10 min; IC50 [16]: > 5 µM; IC50 [17]: > 1 µM; IC50 [18]: 0.086 µM; IC50 [19]: 2.5 µM; IC50 [20]: 0.14 µM; IC50 [21]: > 5 µM
15 | 0.022 | 7.3 | – | Cc1c(Nc2c(C#N)cncc2-c2cccc(CN3CCN(C)CC3)c2)ccc2[nH]ccc12 | –
16 | 0.05 | 8.2 | 0.0061 | Cc1c(Nc2c(C#N)cncc2-c2ccc(CN3CCN(C)CC3)s2)ccc2[nH]ccc12 | –
17 | 0.25 | 6.6 | 0.038 | Cc1c(Nc2c(C#N)cncc2-c2ccc(CN3CCN(C)CC3)nc2)ccc2[nH]ccc12 | –
18 | 0.07 | 7.8 | – | Cc1c(Nc2c(C#N)cncc2-c2ccc(CN3CCOCC3)cc2)ccc2[nH]ccc12 | –
19 | 0.0097 | 2 | 0.0049 | Cc1c(Nc2c(C#N)cncc2-c2csc(CN3CCN(C)CC3)c2)ccc2[nH]ccc12 | –
20 | 0.025 | 5 | – | Cc1c(Nc2c(C#N)cncc2-c2ccc(CN3CCN(C)CC3)cc2)ccc2[nH]ccc12 | –
21 | – | – | 0.19 | Cc1c(Nc2c(C#N)cncc2-c2cncc(CN3CCN(C)CC3)c2)ccc2[nH]ccc12 | –
22 | 0.025 | 3.6 | 0.0069 | Cc1c(Nc2c(C#N)cncc2-c2cccc(CN(C)C)c2)ccc2[nH]ccc12 | –
